Measurements as given in patent US20150291593A1, “NOVEL HETEROARYL AND HETEROCYCLE COMPOUNDS, COMPOSITIONS AND METHODS” (HUTCHISON MEDIPHARMA LIMITED, priority 2012, published 2015).

Experiments:
p110β/p85α = target: T1, p110β/p85α (Homo sapiens, UniProt P42338); assay: Transcreener KINASE Assay, kinase inhibition of p110β/p85α; type: biochemical; conditions: @ 1 uM
T1 construct: purchased Millipore
In short: (§1)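 ADP production was read by fluorescence polarization immunoassay (60 min detection step) after an 80 min room-temperature reaction of p110/p85α enzyme, compound in 2% DMSO, and PIP2/ATP solution (30 uM/10 uM as added) in HEPES buffer with MgCl2 and DTT. IC50s came from inhibition versus the DMSO control.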

p110α/p85α = target: T2, p110α/p85α (Homo sapiens, UniProt P42336); assay: Transcreener KINASE Assay, kinase inhibition of p110α/p85α; type: biochemical; conditions: @ 1 uM
T2 construct: purchased Invitrogen
Method: PI3K kinases including p110α/p85α, p110δ/p85α and p110γ are purchased from Invitrogen, and p110β/p85α is from Millipore.
Primary screening data and IC50 values are measured using Transcreener™ KINASE Assay (Bellbrook, Catalog #3003-10K). […] It is a universal, homogenous, high throughput screening (HTS) technology using a far-red, competitive fluorescence polarization immunoassay based on the detection of ADP to monitor the activity of enzymes that catalyze group transfer reactions. Briefly, the Transcreener KINASE Assay is designed as a simple two-part, endpoint assay.
In the first step, the 25 ul kinase reaction is performed by preparing a reaction mixture containing 5 ul test compound (2% DMSO final concentration), 10 ul kinase, buffer (50 mM HEPES, 100 mM NaCl, 1 mM EGTA, 0.03% CHAPS, 3 mM MgCl2, and freshly supplemented 1 mM DTT), and 10 ul 30 uM PIP2/10 uM ATP. The plate is sealed and incubated for 80 min at room temperature. Next, 25 ul ADP detection mix is added per well. The plate is sealed again and incubated for 60 min at room temperature, and then measure fluorescence polarization by Tecan Infinite F500 Reader.
Data is analyzed and IC50s are generated using the add-in software for Microsoft Excel, Xlfit™ (version 2.0). IH %=(ADP amount under 2% DMSO-ADP amount under test compound)/ADP amount under 2% DMSO.

p110γ = target: T3, p110γ (Homo sapiens, UniProt P48736); assay: Transcreener KINASE Assay, kinase inhibition of p110γ; type: biochemical; conditions: for IC50: read-out: PI3Kγ IC50
T3 construct: purchased Invitrogen
In short: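 Recombinant human PI3K complexes (p110α/p85α, p110β/p85α, p110δ/p85α, p110γ) assayed by ADP detection via competitive far-red fluorescence polarization immunoassay.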

p110δ/p85α = target: T4, p110δ/p85α (Homo sapiens, UniProt O00329); assay: Transcreener KINASE Assay, kinase inhibition of p110δ/p85α; type: biochemical; conditions: for IC50: read-out: PI3Kδ IC50
T4 construct: purchased Invitrogen
In short: as §1

PI3Kγ = target: T5, PI3Kγ (Mus musculus, UniProt Q9JHG7); assay: Acumen Assay - Raw264.7 p-AKT Assay (C5a stimulated); type: cell-based; conditions: Raw264.7 macrophage cells, compound 30 min, 10 nM C5a 5 min, p-AKT (Ser473) readout; read-out: PI3Kγ cell-C5a Raw264.7 IC50
T5 construct: endogenous in cells; host or cells: Raw264.7 macrophage cells
Method: Acumen® eX3 (A Mμltilaser Microplate Cytometer For Enhanced High Content Screening): TTP LabTech
3×10^4 Raw264.7 macrophage cells were seeded into 96-well plates with DMEM+10% heat-inactivated FBS at […], 90 ul/well, overnight. After starvation for 3 hr at 37° C. under 5% CO2, Raw264.7 cells were treated with 10 ul/well various concentrations of compound or 0.5% DMSO for 30 min, and then stimulated with 10 ul/well 10 nM C5a for 5 min.
1.) Cells were fixed 110 μL of 4% pre-warmed Paraformaldehyde (2% final), incubate for 45 min at room temperature.
2.) Remove paraformaldehyde solution. Add 100 μL of ice-cold 0.1% Triton X-100 in PBS and leave at 4° C. for 30 min.
3.) Wash once in 100 μL PBS.
4.) Incubate with 100 μL blocking buffer (1% BSA, in PBS) for 2 hours at room temperature.
5.) Wash once for 5 min with 100 ul PBS.
6.) Incubate with 40 μL 1:200 dilution of phospho AKT (Ser473) rabbit antibody in antibody dilution buffer (0.1% BSA, in PBS) overnight at 4° C.
7.) Wash for 3 times for 10 min with 100 ul PBS.
8.) Incubate for 90 min at room temperature with 50 μL of goat anti-rabbit Alex488 antibody at a 1:1,000 dilution in antibody dilution buffer (0.1% BSA, in PBS). Cover plate in foil to keep out of light.
9.) Wash for 3 times for 10 min with 100 μL PBS.
10.) Add 50 μL of 1.5 μM Propidium Iodide solution to each well to determine cell number at a 1:1,000 dilution in PBS (stock: 1.5 mM).
11.) Incubate at room temperature for 30 min.
12.) Seal the plate with a black cover-seal (supplied with plate).
13.) Load the plate into the Acumen Explorer and scan with the appropriate instrument settings.

T2 sequence (P42336 whole entry, species assumed): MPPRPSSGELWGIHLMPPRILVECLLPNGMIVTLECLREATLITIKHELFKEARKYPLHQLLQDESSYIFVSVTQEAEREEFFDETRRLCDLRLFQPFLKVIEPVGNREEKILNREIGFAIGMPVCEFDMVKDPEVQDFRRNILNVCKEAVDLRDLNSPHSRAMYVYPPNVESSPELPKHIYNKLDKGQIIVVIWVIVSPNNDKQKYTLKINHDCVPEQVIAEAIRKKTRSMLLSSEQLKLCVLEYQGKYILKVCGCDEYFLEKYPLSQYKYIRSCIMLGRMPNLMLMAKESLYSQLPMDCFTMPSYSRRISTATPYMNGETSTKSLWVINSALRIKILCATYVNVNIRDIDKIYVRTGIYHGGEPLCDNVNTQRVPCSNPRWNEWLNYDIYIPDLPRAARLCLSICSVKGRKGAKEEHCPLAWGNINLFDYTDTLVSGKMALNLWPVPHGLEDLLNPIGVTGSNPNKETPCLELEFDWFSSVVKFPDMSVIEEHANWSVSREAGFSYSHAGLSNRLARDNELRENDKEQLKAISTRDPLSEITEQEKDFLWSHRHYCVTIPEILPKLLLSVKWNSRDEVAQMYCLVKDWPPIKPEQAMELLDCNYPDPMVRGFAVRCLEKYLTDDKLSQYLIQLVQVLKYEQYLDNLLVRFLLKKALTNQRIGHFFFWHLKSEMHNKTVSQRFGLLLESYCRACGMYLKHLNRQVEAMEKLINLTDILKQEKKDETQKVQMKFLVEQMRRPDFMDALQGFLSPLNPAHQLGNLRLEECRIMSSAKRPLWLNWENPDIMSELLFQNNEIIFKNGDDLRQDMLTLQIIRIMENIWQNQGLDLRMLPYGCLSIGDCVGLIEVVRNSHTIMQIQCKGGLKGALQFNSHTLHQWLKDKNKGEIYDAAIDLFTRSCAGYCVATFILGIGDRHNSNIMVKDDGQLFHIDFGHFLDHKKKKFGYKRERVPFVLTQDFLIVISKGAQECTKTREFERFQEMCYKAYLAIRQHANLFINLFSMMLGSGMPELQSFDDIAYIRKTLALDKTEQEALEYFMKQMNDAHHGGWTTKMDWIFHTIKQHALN
T2 sequence (P27986 whole entry partner, species assumed): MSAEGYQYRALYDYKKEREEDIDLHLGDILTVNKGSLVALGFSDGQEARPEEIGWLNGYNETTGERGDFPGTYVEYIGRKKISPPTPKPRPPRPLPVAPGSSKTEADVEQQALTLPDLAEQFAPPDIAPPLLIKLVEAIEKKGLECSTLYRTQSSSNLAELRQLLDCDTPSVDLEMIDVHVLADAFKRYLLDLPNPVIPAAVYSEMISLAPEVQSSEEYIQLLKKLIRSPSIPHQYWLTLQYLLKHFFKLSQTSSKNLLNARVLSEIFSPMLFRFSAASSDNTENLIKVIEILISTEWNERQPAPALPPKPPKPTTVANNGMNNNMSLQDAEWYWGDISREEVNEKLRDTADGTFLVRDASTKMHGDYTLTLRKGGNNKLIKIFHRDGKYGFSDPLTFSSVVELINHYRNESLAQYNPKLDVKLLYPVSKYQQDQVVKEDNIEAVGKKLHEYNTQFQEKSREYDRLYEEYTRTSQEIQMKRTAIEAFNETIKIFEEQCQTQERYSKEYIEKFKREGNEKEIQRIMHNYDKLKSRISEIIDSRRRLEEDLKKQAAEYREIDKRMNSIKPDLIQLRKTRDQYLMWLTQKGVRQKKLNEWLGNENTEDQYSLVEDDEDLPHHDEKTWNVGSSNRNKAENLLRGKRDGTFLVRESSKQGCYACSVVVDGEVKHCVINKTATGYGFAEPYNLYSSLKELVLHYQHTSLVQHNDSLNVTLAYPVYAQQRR
T4 sequence (O00329 whole entry, species assumed): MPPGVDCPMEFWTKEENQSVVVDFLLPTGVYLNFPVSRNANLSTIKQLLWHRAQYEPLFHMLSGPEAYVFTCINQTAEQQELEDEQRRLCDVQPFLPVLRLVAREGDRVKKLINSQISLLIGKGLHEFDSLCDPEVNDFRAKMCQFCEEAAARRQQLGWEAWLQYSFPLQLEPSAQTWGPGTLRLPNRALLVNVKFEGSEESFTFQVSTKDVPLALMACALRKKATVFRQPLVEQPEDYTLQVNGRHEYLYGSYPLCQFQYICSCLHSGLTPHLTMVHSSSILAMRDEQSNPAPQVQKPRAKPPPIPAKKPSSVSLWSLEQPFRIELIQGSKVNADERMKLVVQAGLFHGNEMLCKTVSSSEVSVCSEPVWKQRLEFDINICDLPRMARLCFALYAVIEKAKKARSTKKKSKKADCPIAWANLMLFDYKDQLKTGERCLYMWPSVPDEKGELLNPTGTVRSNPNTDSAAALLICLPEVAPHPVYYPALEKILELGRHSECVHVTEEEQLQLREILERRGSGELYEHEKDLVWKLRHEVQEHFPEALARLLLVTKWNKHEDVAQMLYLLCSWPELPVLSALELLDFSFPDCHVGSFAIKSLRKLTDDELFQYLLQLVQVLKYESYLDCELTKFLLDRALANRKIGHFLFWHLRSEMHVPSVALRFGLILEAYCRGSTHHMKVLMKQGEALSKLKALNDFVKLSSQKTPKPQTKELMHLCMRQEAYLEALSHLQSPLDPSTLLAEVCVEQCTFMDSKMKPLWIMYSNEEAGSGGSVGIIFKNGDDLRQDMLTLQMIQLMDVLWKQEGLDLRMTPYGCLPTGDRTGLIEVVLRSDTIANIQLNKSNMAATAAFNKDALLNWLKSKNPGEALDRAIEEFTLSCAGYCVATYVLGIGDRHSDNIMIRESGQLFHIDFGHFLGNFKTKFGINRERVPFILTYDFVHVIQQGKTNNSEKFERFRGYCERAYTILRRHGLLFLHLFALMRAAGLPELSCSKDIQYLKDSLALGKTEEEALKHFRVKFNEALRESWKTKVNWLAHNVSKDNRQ
T4 sequence (P27986 whole entry partner, species assumed): as the sequence (P27986 whole entry partner, species assumed) above
T3 sequence (P48736 whole entry, species assumed): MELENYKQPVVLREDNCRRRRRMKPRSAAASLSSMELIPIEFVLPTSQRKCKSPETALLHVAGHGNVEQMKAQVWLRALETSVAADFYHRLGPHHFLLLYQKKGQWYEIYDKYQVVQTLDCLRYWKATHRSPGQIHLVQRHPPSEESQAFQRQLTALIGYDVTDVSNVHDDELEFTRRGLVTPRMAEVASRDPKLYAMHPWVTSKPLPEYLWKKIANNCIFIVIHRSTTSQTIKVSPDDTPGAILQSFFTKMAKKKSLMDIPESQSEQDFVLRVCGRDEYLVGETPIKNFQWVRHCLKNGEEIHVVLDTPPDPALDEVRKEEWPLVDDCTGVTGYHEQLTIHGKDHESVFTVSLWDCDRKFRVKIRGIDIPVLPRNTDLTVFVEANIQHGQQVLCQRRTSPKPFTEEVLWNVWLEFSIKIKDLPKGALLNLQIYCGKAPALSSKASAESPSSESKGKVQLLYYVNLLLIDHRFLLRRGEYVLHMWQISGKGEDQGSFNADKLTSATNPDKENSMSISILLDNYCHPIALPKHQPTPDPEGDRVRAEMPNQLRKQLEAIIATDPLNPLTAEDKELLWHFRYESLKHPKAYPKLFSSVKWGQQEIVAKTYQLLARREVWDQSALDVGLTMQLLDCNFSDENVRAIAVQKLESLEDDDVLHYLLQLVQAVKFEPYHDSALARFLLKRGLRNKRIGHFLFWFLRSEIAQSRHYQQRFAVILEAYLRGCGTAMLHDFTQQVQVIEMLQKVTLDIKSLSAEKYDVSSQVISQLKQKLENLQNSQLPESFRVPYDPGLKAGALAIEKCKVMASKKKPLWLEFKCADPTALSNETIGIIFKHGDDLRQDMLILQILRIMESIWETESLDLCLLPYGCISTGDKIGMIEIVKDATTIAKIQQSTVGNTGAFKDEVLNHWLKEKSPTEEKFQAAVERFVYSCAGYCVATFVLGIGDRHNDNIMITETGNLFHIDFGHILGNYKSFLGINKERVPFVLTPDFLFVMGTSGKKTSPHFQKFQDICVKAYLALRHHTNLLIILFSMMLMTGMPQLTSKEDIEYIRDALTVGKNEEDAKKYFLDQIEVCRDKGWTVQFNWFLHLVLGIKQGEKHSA
T1 sequence (P42338 whole entry, species assumed): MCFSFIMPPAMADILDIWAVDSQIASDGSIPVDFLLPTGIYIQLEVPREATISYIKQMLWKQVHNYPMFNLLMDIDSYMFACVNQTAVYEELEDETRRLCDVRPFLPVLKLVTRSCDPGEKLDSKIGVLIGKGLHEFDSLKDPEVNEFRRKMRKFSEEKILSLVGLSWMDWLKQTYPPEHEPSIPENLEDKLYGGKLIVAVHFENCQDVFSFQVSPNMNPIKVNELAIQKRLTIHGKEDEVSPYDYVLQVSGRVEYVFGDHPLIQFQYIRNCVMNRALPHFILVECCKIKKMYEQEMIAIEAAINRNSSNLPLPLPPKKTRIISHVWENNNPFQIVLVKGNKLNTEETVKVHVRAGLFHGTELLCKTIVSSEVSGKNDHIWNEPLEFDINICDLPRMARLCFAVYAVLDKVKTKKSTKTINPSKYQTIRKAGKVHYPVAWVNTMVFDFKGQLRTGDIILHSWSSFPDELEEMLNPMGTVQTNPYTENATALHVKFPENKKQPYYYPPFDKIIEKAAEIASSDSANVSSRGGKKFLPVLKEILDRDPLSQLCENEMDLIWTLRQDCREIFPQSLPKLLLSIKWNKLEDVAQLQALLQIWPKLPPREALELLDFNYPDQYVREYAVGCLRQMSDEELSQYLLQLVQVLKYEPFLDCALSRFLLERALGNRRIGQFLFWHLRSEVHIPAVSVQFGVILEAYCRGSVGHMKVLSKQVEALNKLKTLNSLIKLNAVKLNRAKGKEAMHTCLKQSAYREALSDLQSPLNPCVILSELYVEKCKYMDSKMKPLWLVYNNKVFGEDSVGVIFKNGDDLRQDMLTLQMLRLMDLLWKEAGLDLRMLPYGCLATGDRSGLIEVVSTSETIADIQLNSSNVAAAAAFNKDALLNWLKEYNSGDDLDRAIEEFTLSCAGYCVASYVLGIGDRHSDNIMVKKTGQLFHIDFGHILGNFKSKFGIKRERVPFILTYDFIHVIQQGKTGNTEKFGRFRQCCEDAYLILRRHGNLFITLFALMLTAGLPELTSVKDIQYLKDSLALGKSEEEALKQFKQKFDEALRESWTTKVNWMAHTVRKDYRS
T1 sequence (P27986 whole entry partner, species assumed): as the sequence (P27986 whole entry partner, species assumed) above

| Compound | PI3Kβ IH % @ 1 uM (p110β/p85α) [%] | PI3Kα IH % @ 1 uM (p110α/p85α) [%] | PI3Kγ IH % @ 1 uM (p110γ) [%] | PI3Kδ IH % @ 1 uM (p110δ/p85α) [%] | IC50 (p110δ/p85α) [nM] | IC50 (PI3Kγ) [nM] | IC50 (p110γ) [nM] |
| --- | --- | --- | --- | --- | --- | --- | --- |
| O=c1c2cccn2nc([C@@H]2CCCN2c2ncnc3[nH]cnc23)n1-c1ccccc1 [Compound 4] | 17.4 | 2.6 | 92.4 | 94.1 | 10 | 3940 |  |
| N#Cc1c[nH]c2ncnc(N3CCC[C@H]3c3nn4cccc4c(=O)n3-c3ccccc3)c12 [Compound 1, (S)-4-(2-(4-oxo-3-phenyl-3,4-dihydropyrrolo[1,2-f][1,2,4]triazin-2-yl)pyrrolidin-1-yl)-7H-pyrrolo[2,3-d]pyrimidine-5-carbonitrile] | 47.7 | 50.8 | 91.9 | 97.8 | 2 |  |  |
| N#Cc1c[nH]c2ncnc(N3CCC[C@H]3c3nn4cccc4c(=O)n3-c3cccc(Cl)c3)c12 [Compound 15] | 5.4 | 24.6 | 72.0 | 100 |  |  | 312 |
| NC(=O)c1c[nH]c2ncnc(N3CCC[C@H]3c3nn4cccc4c(=O)n3-c3ccccc3)c12 [Compound 94, (S)-4-(2-(4-oxo-3-phenyl-3,4-dihydropyrrolo[1,2-f][1,2,4]triazin-2-yl)pyrrolidin-1-yl)-7H-pyrrolo[2,3-d]pyrimidine-5-carboxamide] | 53.5 | 36.3 | >100 | >100 |  |  | 22 |
